Assay results taken from patent US6509163B1, “Methods of screening modulators of mammalian P2X7 purinergic receptors” (Glaxo Group Limited, priority 1997, dated 2003).
Where two headings read alike, the source gives them in different places.

Target: T1, P2X7 receptor (Rattus norvegicus, UniProt Q64663)
T1 construct: yielding a construct that encoded the entire P2X7 protein; expressed in transfected cells
T1 sequence (Q64663 1-595): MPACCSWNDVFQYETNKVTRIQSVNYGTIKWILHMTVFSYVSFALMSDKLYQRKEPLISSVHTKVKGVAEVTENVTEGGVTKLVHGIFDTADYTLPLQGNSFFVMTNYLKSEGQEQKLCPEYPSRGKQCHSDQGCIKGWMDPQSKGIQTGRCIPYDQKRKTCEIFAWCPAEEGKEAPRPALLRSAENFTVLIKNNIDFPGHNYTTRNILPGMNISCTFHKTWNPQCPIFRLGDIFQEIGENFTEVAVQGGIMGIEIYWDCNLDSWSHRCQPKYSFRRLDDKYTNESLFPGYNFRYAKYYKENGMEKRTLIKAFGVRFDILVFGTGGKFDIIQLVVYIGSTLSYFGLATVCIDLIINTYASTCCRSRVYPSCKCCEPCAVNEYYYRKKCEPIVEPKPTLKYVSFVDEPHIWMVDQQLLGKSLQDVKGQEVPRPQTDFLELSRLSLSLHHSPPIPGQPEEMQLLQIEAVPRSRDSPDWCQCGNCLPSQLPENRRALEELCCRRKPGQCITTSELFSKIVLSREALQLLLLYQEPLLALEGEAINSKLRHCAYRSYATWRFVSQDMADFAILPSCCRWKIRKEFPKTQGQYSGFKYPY
Test: Whole-cell recordings of agonist-evoked currents in HEK293 cells transfected with rat P2X7 cDNA (Example 2)
Format: cell-based
Conditions: for EC50: read-out: EC50 (half-maximal concentration) for current
Procedure: Whole-cell recordings were obtained at room temperature from HEK293 cells transiently or stably transfected with P2X7 cDNA, from HEK293 cells transiently transfected with P2X7ΔC cDNA, and from J774A.1 cells (American Type Culture Collection, Rockville, Md.). Agonist were applied for periods of 1 to 3 s by a fast-flow U-tube delivery system (Fenwick et al, J. Physiol. (London) 331:577 (1982)). The internal pipette solution was 140 mM cesium-aspartate or potassium-aspartate, 20 mM NaCl, 10 mM EGTA, and 5 mM Hepes: normal external solution was 145 mM NaCl, 2 mM KCl, 2 mM CaCl2, 1 mM MgCl2, 10 mM Hepes, and 12 mM glucose. Low divalent external solution was nominally magnesium-free with 0.3 mM CaCl2. For cells expressing P2X7 receptors and J774 cells, concentration-response curves were constructed in low divalent solution by recording currents in response to 1-s applications of agonist at 8-min intervals with normal external solution present for 6 min before each application. This protocol was necessary to prevent the development of sustained inward currents. Lipofectin was used for transfection (Buell et al, EMBO J. 15:55 (1996)).
Reversal potentals (Erev) were obtained by application of ATP (300 μM) or BzATP (30 μM) while the membrane was held at various potentals or by application of voltage ramps from −120 to 30 or 50 mV. Permeability ratios from (Erev) were calculated by first computing α (=Pna/PK, where P is permeability) for internal (i) and external (o) concentrations [Na]i=20 mM, [Na]o=145 mM, [Ko]=0 mM, and [K]i=140 mM from α={[145/exp(Erev)F/RT −20]}/140 (where F is the Faraday, R is the gas constant, and T is the absolute temperature). Other PK/PNa values, when [X]o=145 mM, [Na]i=20 mM, [K]i=140 mM, and [Na]o=[K]o=[X]i=0 mM, were computed from PK/PNa={[exp (ErevF/RT) (20=140α)}/145. In order of size (FIG. 3C), X was cesium, methylamine, tris(hydroxymethyl)-aminomethane, tetraethylammonium, and N-methyl-D-glucamine. The internal solution also contained 10 mM EGTA and 5 mM Hepes. External solutions also contained 10 mM glucose and normal or low concentrations of divalent cations; pH was maintained at 7.3 with HCl, histidine, or Hepes as required, and the osmolarity of all solutions was 295 to 315.

In the case of `Nc1ncnc2c1ncn2[C@@H]1O[C@H](COP(=O)(O)OP(=O)(O)OP(=O)(O)O)[C@@H](OC(=O)c2ccc(C(=O)c3ccccc3)cc2)[C@H]1O` [BzATP, 3′-O-(4-benzoyl)benzoyl ATP], the “Current amplitude (mean±SEM) to BzATP” value (30 μM BzATP, normal solution, holding potential −70 mV, transiently transfected HEK cells, n=18) is reported as 636±118 pA, the EC50 (normal solution (2 mM CaCl2, 1 mM MgCl2), n=4) is reported as 7 ± 2 µM and the EC50 (zero magnesium, n=7) is reported as 3.7 ± 0.7 µM.
